The values below come from US8440718B2, “Modulation of inflammation related to columnar epithelia” (The Brigham and Women's Hospital, Inc., priority 1991, dated 2013).

Marks after values point to notes of the source that are not given here.

The test system of assay [1] is human PMN migration across inverted T84 epithelial monolayers. Description: PMN transepithelial migration assay, basolateral-to-apical direction (inverted monolayers), fMLP gradient, myeloperoxidase readout. The assay is classed as cell-based. Conditions: for inhibition of PMN migration, basolateral-to-apical (total MPO activity): 10 nM, 15 min pre-incubation 37°C, 1 μM fMLP, 120 min. Here is the method: Cell culture Approximately 350 epithelial monolayers were used for these studies. T84 intestinal epithelial cells (passages 70-95) were grown and maintained as confluent monolayers on collagen coated permeable support. Monolayers were grown on 0.33 cm^2 ring-supported polycarbonate filters (Costar Corp., Cambridge, Mass.) and utilized 6-14 days after plating as described in Example 2. Transepithelial resistance to passive ion flow was measured as described in Parkos C. A., et al. (1991). J. Clin. Invest. 88: 1605-1612); and Parkos C. A., et al. (1992). J. Cell. Biol. 117: 757-764). Inverted monolayers used to study migration of PMN in the basolateral-to-apical direction were constructed as described in Parkos C. A., et al. (1991). J. Clin. Invest. 88:1605-1612).
Migration assay: The PMN transepithelial migration assay has been detailed in Nash S., et al. (1987). J. Clin. Invest. 80: 1104-1113; Nash S., et al. (1991). J. Clin. Invest 87: 1474-1477); Parkos C. A., et al. (1991). J. Clin. Invest. 88: 1605-1612); and Parkos C. A., et al. (1992). J. Cell. Biol. 117: 757-764. Briefly, human PMN were isolated from normal human volunteers and suspended in modified HBSS (without Ca^2+ and Mg^2+, with 10 mM Hepes, pH 7.4, Sigma) at a concentration of 5×10^7/ml. Prior to addition of PMN, T84 monolayers were extensively rinsed in HBSS to remove residual serum components. Migration assays were performed by the addition of PMN (40 μl) to HBSS ([…]) in the upper chambers after chemoattractant (1 μM fMLP in HBSS) was added to the opposing (lower) chambers. Unless otherwise indicated, PMN were not washed free of LXA4 prior to addition to monolayers, and therefore, a five-fold dilution of lipoxin was present during the migration assay. For apical-to-basolateral migration experiments, PMN (2×10^6) were added at time 0. Migration in the basolateral-to-apical direction, while qualitatively similar, is substantially more efficient than in the apical-to-basolateral direction. (Parkos C. A., et al. (1991). J. Clin. Invest. 88: 1605-1612). Therefore, 5-fold fewer PMN (4×10^5) were added when migration proceeded in the basolateral-to-apical direction in order that baseline migration signals be approximately equivalent in both directions. (Parkos C. A., et al. (1991). J. Clin. Invest. 88: 1605-1612). Migration was allowed to proceed for 120 minutes, unless otherwise noted. All PMN transepithelial migration experiments were performed in a 37° C. room to ensure that epithelial monolayers, solutions, plasticware, etc., were maintained at uniform 37° C. temperature.
Migration was quantitated by assaying for the PMN azurophilic granule marker myeloperoxidase (MPO) as described previously (Parkos C. A., et al. (1991). J. Clin. Invest 88: 1605-1612). Following each migration assay, non-adherent PMN were extensively washed from the surface of the monolayer and PMN cell equivalents (PMN CE), estimated from a standard curve, were assessed as the number of PMN's associated with the monolayer, the number which had completely traversed the monolayer (ie. across the monolayer into the reservoir bath), as well as the total number of transmigrating PMN (the sum of monolayer and reservoir-associated PMN).
Data Presentation: Individual experiments were performed using large numbers of uniform groups of monolayers and PMN from individual blood donors on individual days. PMN isolation was restricted to five different blood donors (repetitive donations) over the course of these studies. Myeloperoxidase assay data were compared by two-factor analysis of variance (ANOVA) or by comparison of means using Student's t-Test PMN migration results are represented as PMN CE derived from a daily standard PMN dilution curve. Monolayer-associated PMN are represented as the number of PMN CE per monolayer and reservoir-associated PMN (ie. PMN which had completely traversed the monolayer into the lower chamber) are represented as the number of PMN CE/ml (total volume of 1 ml). […]

In assay [2] the test system is human PMN migration across T84 epithelial monolayers. In words: Effect of inhibitors on baseline and LXA4-elicited PMN transepithelial migration, apical-to-basolateral. It counts as cell-based.
Assay [3] concerns neutrophil transmigration across T84 monolayers. Description: Neutrophil migration across inverted T84 monolayers (basolateral to apical), myeloperoxidase assay, Example 2. It counts as cell-based, human. The conditions noted are these: FMLP 10^−6 M, PMN 6 × 10^6/cm^2. The source says:
(§1) Preparation of monolayers: Normal or inverted monolayers can be constructed for a physiological microassay using the commercially available insert system (Costar inserts, 0.33 cm^2, 5 μm polycarbonate filters). The larger pore size is crucial for allowing neutrophils to penetrate the filter. Collagen 1 must coat the filters to allow attachment of T84 cells. Original descriptions of the collagen coat involved procedures in which the collagen was chemically crosslinked Dharmsathaphorn, K. et al; Meth. Enzymol. 192:354-389; 1990. Dharmsathaphom, K. et al; Am. J. Physiol. 246 (Gastrointest. Liver Physiol. 9):G204-G208; 1984.
Inverted monolayers can also be grown using this technique. For this 0.8 mm thick lexan rings having the same dimension of the base of Costar inserts are machined, deburred, cleaned by boiling with a trace of detergent and subsequently exhaustively washed, and attached to the underside of the insert using General Electric RTV Silicone glue (this underside ring is necessary for a peripheral electrical seal). After drying overnight, the inserts are sterilized by submersion in 70% ethanol (4-hr overnight), inverted onto a sterile petri dish in a hood, and allowed to dry. Collagen and cells are added to the filter (underside now facing up) exactly as with unmodified inserts and cells are allowed to attach for 4 hours before righting the inserts into the 24 well holding plates. Subsequent treatment of the monolayers is identical to that described above.
Isolation of neutrophils: Neutrophils are isolated from whole blood using a gelatin-sedimentation technique. Briefly, whole blood, anticoagulated with citrate/dextrose, is centrifuged at 300×g for 20 minutes (20° C.). The plasma and buffy coat are carefully removed using a curved, siliconized glass pipette which is attached to a vacuum trap. […]
Myeloperoxidase assay of neutrophil transepithelial migration: PMN contents of monolayers and lower chambers can be quantitated by assaying the PMN-specific azurophil granule marker, myeloperoxidase (MPO). […]

The test system is the same in assay [4]. In words: Neutrophil transmigration across T84 monolayers by resistance or myeloperoxidase assay, Example 2. Conditions: fMLP 10^−6 and 10^−7 M. The assay is classed as cell-based, human.
Text: as §1
Isolation of neutrophils: Neutrophils are isolated from whole blood using a gelatin-sedimentation technique. Briefly, whole blood, anticoagulated with citrate/dextrose, is centrifuged at 300×g for 20 minutes (20° C.). The plasma and buffy coat are carefully removed using a curved, siliconized glass pipette which is attached to a vacuum trap. Care must be taken not to aspirate the interface between the buffy coat and RBC since this is where PMN reside. […]
For measurements, bridges are positioned as described, and the spontaneous transepithelial electrical potential and the instantaneous potential generated by passing 25 μA of current are measured. […] Using these values and Ohm's Law, tissue resistance and transepithelial current are then calculated. […]

Turning to `CCCCC[C@H](O)[C@H](O)/C=C/C=C/C=C\C=C\[C@@H](O)CCCC(=O)O` (relative stereo) [LXB4, (5S, 14R, 15S)-trihydroxy-6,10,12-trans-8-cis-eicosatetraenoic acid], in assay [1], the “effect on PMN migration in basolateral-to-apical direction” value is reported as “no effect” and the “inhibition of PMN migration, basolateral-to-apical (total MPO activity)” value is recorded as 7±4%.

Consider `CCCCCC(O)C=CC=CC=CC=CC(O)C(O)CCCC(=O)O` (stereo not drawn) [11-trans-LXA4], for which the “inhibition of PMN migration, basolateral-to-apical (total MPO activity)” value in assay [1] amounted to 16±6%. Turning to `CC1CNCCN1S(=O)(=O)c1cccc2cnccc12` (stereo not shown) [Compound H7], the “inhibition of PMN transepithelial migration compared to vehicle control” value in assay [2] (H7 100 μM final concentration) worked out at 91±4%. In the case of `CC(C)c1ccc2c(c1)c(SC(C)(C)C)c(CC(C)(C)C(=O)O)n2Cc1ccc(Cl)cc1` [MK886], in assay [2] (MK886 10 ng/ml), the “effect on LXA4-elicited increase in PMN transepithelial migration” value is “did not effect” and the “effect on baseline fMLP driven PMN migration” value is given as “did not alter”.

With `COc1ccc2c(c1)c(CC(=O)O)c(C)n2C(=O)c1ccc(Cl)cc1` [indomethacin], in assay [2] (indomethacin 50 μM, 15 min, 37°C, fMLP gradient), the “baseline PMN migration, % vehicle control” value is listed as 109±13 % vehicle control. For the compound N-formyl-Met-Leu-Phe [fMLP], in assay [3], the “Neutrophil Cell Equivalents In Monolayers” value was 5.47 × 10^4, the “Neutrophil Cell Equivalents In Opposite Reservoir” value is on record as 85.30^# × 10^4 and the “Neutrophil Cell Equivalents Total” value is reported as 90.77^# × 10^4. The “stimulation of neutrophil transmigration” value in assay [4] was “effective in stimulating transmigration”. pertussis toxin: the “inhibition of control, LXA4-elicited migration” value in assay [2] (PMN pre-exposed to pertussis toxin 2 μg/ml, then LXA4) worked out at 87±4%. Besides, the “inhibition of baseline fMLP driven migration compared to vehicle control” value in assay [2] (pertussis toxin 2 μg/ml) turned out to be 91±8%.
